This note sets out measurements from ChEMBL document CHEMBL1629644, “Theileria apicoplast as a target for chemotherapy” (Antimicrob Agents Chemother, 2009).

Assay [1] can be described thus: Induction of apoptosis in bovine BL3 cells assessed as early apoptotic cells after 24 hrs by annexin V/propidium iodide staining-based FACS analysis. The format is functional, Bos taurus. Also on record: concentration or dose not given beside the values.
Assay [2] can be described thus: Induction of apoptosis in bovine BL3 cells assessed as viable cells after 24 hrs by annexin V/propidium iodide staining-based FACS analysis. The format is functional, Bos taurus. Also on record: concentration or dose not given beside the values. A general note: In flow cytometry, cells or beads pass a laser one at a time.
The nature of assay [3]: Induction of apoptosis in bovine BL3 cells assessed as late apoptotic cells after 24 hrs by annexin V/propidium iodide staining-based FACS analysis. The format is functional, Bos taurus. Further details: concentration or dose not given beside the values.
A short description of assay [4]: Induction of apoptosis in bovine BL3 cells assessed as necrotic after 24 hrs by annexin V/propidium iodide staining-based FACS analysis. The format is functional, Bos taurus. Also on record: concentration or dose not given beside the values.
A short description of assay [5]: Antiproliferative activity against Theileria parva-induced proliferation of bovine B lymphocyte assessed as inhibition of [3H]thymidine uptake after 48 hrs. The format is functional. Conditions: Bos taurus, B-cell.
Assay [6] is described as follows: Antiproliferative activity against Theileria parva-induced proliferation of bovine BL3 cells assessed as inhibition of [3H]thymidine uptake after 32 hrs. The format is functional, Bos taurus.

In the case of `O=C(O)c1cn(C2CC2)c2cc(N3CCNCC3)c(F)cc2c1=O` [CIPROFLOXACIN], the Activity in assay [1] is recorded as 1.03%; in assay [2], 98.63%; in assay [3], 0.25%; in assay [4], 0.03%. Moreover, the IC50 (usually the point on the concentration scale where inhibition reaches its midpoint) in assay [5] is 123 µM.

Turning to `CN[C@@H]1C[C@H]2O[C@@](C)([C@@H]1OC)n1c3ccccc3c3c4c(c5c6ccccc6n2c5c31)C(=O)NC4` [STAUROSPORINE], the Activity in assay [1] is 23.83%; in assay [2], 61.57%; in assay [3] it was 14.54%; in assay [4], 0.08%.

On to `CC(Oc1ccc(Oc2nc3ccc(Cl)cc3o2)cc1)C(=O)O` (stereo not drawn) [FENOXAPROP], for which, in assay [6], the “inhibition (INH)” value is above 75%. Also, the Activity in assay [1] is 15.98%; in assay [2], 83.78%; in assay [3], 0.06%; in assay [4], 0.18%. For the same molecule, the IC50 in assay [5] is 262 µM.

Take `CO[C@H]1/C=C/O[C@@]2(C)Oc3c(C)c(O)c4c(O)c(c(/C=N/N5CCN(C)CC5)c(O)c4c3C2=O)NC(=O)/C(C)=C\C=C\[C@H](C)[C@H](O)[C@@H](C)[C@@H](O)[C@@H](C)[C@H](OC(C)=O)[C@@H]1C` [RIFAMPIN]: the “inhibition (INH)” value in assay [6] is reported as above 75%. Moreover, the Activity in assay [1] stood at 2.43%; in assay [2], 97.57%; in assay [3], 0%; in assay [4] it was 0%. In addition, the half-inhibitory concentration (IC50) in assay [5] came out at 96 µM.

On to `Oc1cc(Cl)ccc1Oc1ccc(Cl)cc1Cl` [TRICLOSAN], for which the “inhibition (INH)” value in assay [6] is reported as above 75%. The Activity in assay [1] was 44.02%; in assay [2], 45.87%; in assay [3] it was 9.98%; in assay [4], 0.13%. In assay [5], the half-inhibitory concentration (IC50) amounted to 20 µM.

For the molecule `CCC[C@@H]1C[C@@H](C(=O)N[C@@H]([C@H]2O[C@H](SC)[C@H](O)[C@@H](O)[C@H]2O)[C@H](C)Cl)N(C)C1` [CLINDAMYCIN], the “inhibition (INH)” value in assay [6] is listed as 28%. The Activity in assay [1] is listed as 7.36%; in assay [2] it was 92.64%; in assay [3], 0%; in assay [4], 0%. Further, in assay [5], the half-maximal inhibitory concentration (IC50) was above 400 µM.
